Literature values in US20020051978A1, “Methods and compositions for the identification, assessment, prevention and therapy of human cancers” (priority 2000, published 2002).
Like-named read-outs stand apart in the source and are kept apart here.

Test system: 60 cancer cell lines (NCI 60 cancer cell line series)
Conditions: cited from earlier work

Measured: -Log (GI50)

O=C(O)CCCc1ccc(N(CCCl)CCCl)cc1 [Chlorambucil]
4.6: CNS SF-539 CL12016 | NCSLC NCI-H522 CL1003 | NSCLC NCI-H23(I) CL1001 | Renal RXF-393 CL9016
5.1: Leukemia HL-60(I) (CL7008)
4.5: Breast MCF7(I) (CL5001) | CNS SF-268 CL12014 | Renal 786-O CL9018 | Renal SN12C CL9008
5.2: Leukemia CCRF-CEM(I) (CL7003) | Leukemia SR CL7019
3.9: Breast MDA-MB-435 (CL5011) | Breast MDA-N CL5012 | Colon COLO-250 CL4010 | Colon HT29(I) CL4001 | Leukemia K562(I) CL7005 | Ovarian IGROV1 CL6010 | Ovarian OVCAR-4 CL6002 | Renal A498 CL9013
4.7: Melanoma UACC-62 (CL10020)
5.3: Leukemia MOLT-4 (CL7006)
4.3: Breast MCF7/ADRr (CL5002) | Breast T-47D (CL5014) | CNS SNB-75(I) CL12005
4.4: CNS SF-295 CL12015 | CNS U251(I) CL12009 | Melanoma LOX IMVI CL10001 | NSCLC HOP-62 (CL1026)
4.9: NSCLC NCI-H460 CL1021
4.2: Melanoma M14 (CL10014) | Melanoma MALME-3M CL10002 | NSCLC A549/ATCC (CL1004) | NSCLC HOP-92 (CL1029) | Prostate DU-145 CL11003 | Renal UO-31 CL9004
4.8: Renal ACHN CL9023 | Renal CAKI-1 CL9015
3.8: Breast MDA-MB-231 CL5005 | Colon KM12 (CL4017) | Melanoma SK-MEL-2 (CL10005) | NSCLC EKVX (CL1008) | Renal TK10 CL9024
4.0: Breast BT-549 (CL5013) | CNS SNB-19 (CL12002) | Colon HCC-2998 (CL4002) | Colon HCT-15 CL4015 | Colon HCT-116 (CL4003) | Melanoma SK-MEL-28 (CL10008) | Ovarian OVCAR-3 CL6001 | Ovarian OVCAR-5 CL6003 | Ovarian SK-OV-3 CL6011 | Prostate PC-3(I) CL11001
3.7: Breast HS-578T CL5006 | NSCLC NCI-H332M CL1017
4.1: Colon SW-620 (CL4009) | Leukemia RPMI-8226(I) (CL7010) | Melanoma SK-MEL-5 (CL10007) | Melanoma UACC-257 (CL10021) | NSCLC NCI-H226 CL1013 | Ovarian OVCAR-8 CL6005

CS(=O)(=O)OCCCCOS(C)(=O)=O [Busulfan]
4.0: NSCLC NCI-H460 CL1021
3.6: Breast BT-549 (CL5013) | Breast HS-578T CL5006 | Breast MCF7/ADRr (CL5002) | Breast MDA-MB-231 CL5005 | Breast MDA-MB-435 (CL5011) | Breast T-47D (CL5014) | CNS SF-539 CL12016 | CNS SNB-19 (CL12002) | CNS U251(I) CL12009 | Colon COLO-250 CL4010 | Colon HCT-15 CL4015 | Colon HCT-116 (CL4003) | Colon HT29(I) CL4001 | Colon KM12 (CL4017) | Leukemia K562(I) CL7005 | Leukemia RPMI-8226(I) (CL7010) | Melanoma M14 (CL10014) | Melanoma MALME-3M CL10002 | Melanoma SK-MEL-2 (CL10005) | Melanoma SK-MEL-5 (CL10007) | NCSLC NCI-H522 CL1003 | NSCLC NCI-H23(I) CL1001 | NSCLC NCI-H332M CL1017 | Ovarian IGROV1 CL6010 | Ovarian OVCAR-5 CL6003 | Ovarian OVCAR-8 CL6005 | Ovarian SK-OV-3 CL6011 | Prostate PC-3(I) CL11001 | Renal 786-O CL9018 | Renal A498 CL9013 | Renal SN12C CL9008 | Renal TK10 CL9024 | Renal UO-31 CL9004
4.1: Leukemia SR CL7019
3.7: Breast MCF7(I) (CL5001) | Breast MDA-N CL5012 | CNS SF-295 CL12015 | Colon HCC-2998 (CL4002) | Colon SW-620 (CL4009) | Melanoma LOX IMVI CL10001 | Melanoma SK-MEL-28 (CL10008) | Melanoma UACC-62 (CL10020) | Melanoma UACC-257 (CL10021) | NSCLC A549/ATCC (CL1004) | NSCLC EKVX (CL1008) | NSCLC HOP-62 (CL1026) | NSCLC NCI-H226 CL1013 | Ovarian OVCAR-3 CL6001 | Ovarian OVCAR-4 CL6002 | Prostate DU-145 CL11003
3.8: CNS SF-268 CL12014 | CNS SNB-75(I) CL12005 | Leukemia CCRF-CEM(I) (CL7003) | Leukemia HL-60(I) (CL7008) | NSCLC HOP-92 (CL1029) | Renal ACHN CL9023
3.9: Leukemia MOLT-4 (CL7006) | Renal CAKI-1 CL9015 | Renal RXF-393 CL9016
